According to patent US9879050B2, “Substituted urea depsipeptide analogs as activators of the CLPP endopeptidase” (priority 2013, dated 2018):
In brackets after ≈: the same amount, converted by molar mass. Like-named read-outs stand apart in the source and are kept apart here. *1 amine or outer side, *2 acyl side, *3 side chain or, on linkers, in order; H or OH if unused. Where a SMILES comes first, the peptide text is derived from it. Bridges are numbered along the chain shown (N, C = ends). [ ]: non-standard residue; d: D form. The star is where a group is joined. Phe(3,5-F2) = N[C@@H](Cc1cc(F)cc(F)c1)C(=O)O; NHPh(4-CF3) = FC(F)(F)c1ccc(N*)cc1; Heptenoyl(2E) = CCCC/C=C/C(=O)*; aThr = C[C@H](O)[C@H](N)C(=O)O; Pip = O=C(O)[C@@H]1CCCCN1; CO = O=C([*:1])[*:2]

Assays:
Sa-ClpP [1] = molecular target: T1, Sa-ClpP (Staphylococcus aureus, UniProt Q2G036); experiment: ADEP displacement fluorescence polarization assay; assay type: binding, S. aureus
T1 construct: made in house; host or cells: E. coli BL21 (DE3)
T1 sequence (Q2G036 whole entry): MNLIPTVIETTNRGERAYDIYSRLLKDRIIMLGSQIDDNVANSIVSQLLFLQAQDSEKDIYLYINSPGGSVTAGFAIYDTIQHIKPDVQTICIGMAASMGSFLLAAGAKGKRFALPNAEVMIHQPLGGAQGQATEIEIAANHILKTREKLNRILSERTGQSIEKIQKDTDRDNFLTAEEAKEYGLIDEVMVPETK
In short: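 Displacement of TAMRA-labelled ADEP 2591 probe (50 nM) from 1 μM Sa-ClpP, pre-equilibrated 1 h in Tris·HCl pH 8.0 with 2% DMSO, then 120 min at room temperature with compound, triplicate. Polarization (mP) read ex 530/em 579 nm, normalised to 20 μM ADEP 2378 and DMSO controls; four-parameter fit.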

Sa-ClpP [2] = molecular target: T1, Sa-ClpP; experiment: ClpP activation, EnzCheck Protease Assay with Bodipy-FL casein (second described method); assay type: biochemical, S. aureus
In short: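 Sa-ClpP (2 μM in master mix) with Bodipy-FL casein (2 μM in master mix) in Tris-HCl pH 8.0, 0.01% Triton X-100, compounds in 2% DMSO, triplicate. Fluorescence (ex 485/em 520 nm) followed 30 min; degradation slopes normalized to ADEP4 and DMSO controls, EC50 and % activation by four-parameter fit.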

S. aureus ClpP (Sa-ClpP) = molecular target: T2, S. aureus ClpP (Sa-ClpP) (Staphylococcus aureus, UniProt Q2G036); experiment: ClpP activation, casein-BODIPY digestion assay (first described method); assay type: biochemical
T2 construct: made in house; host or cells: E. coli BL21 (DE3)
T2 sequence (Q2G036 whole entry): as above
In short: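 Purified E. coli-expressed Sa-ClpP (10 μM) with 25 μg/ml BODIPY FL casein and 0-100 μM compound in 50 mM Tris pH 8, 200 mM KCl, 1 mM TCEP at 37° C. Fluorescence (ex 485/em 528 nm) read every 5 min over 45 min; velocities fit to dose-response for EC50 of 50% activation, in triplicate.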

S. pyogenes ATCC 700294 = experiment: Minimal inhibitory concentration, microbroth dilution; assay type: cell-based; conditions: Streptococcus pyogenes, ATCC700294, read-out: Minimal Inhibitory Concentration S. pyogenes ATCC 700294
In short: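 Twofold serial dilutions in broth per CLSI M7-A7 microbroth dilution, incubated aerobically overnight at 37° C. MIC read visually as lowest concentration preventing bacterial growth.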

[3] = 1 μM Sa-ClpP, 50 nM FP probe ADEP 2591, read-out: ADEP Displacement IC50
[4] = read-out: ClpP Activation EC50 (converted)
[5] = first described ClpP activation assay (**), 10 μM saClpP, 25 μg/ml BODIPY FL casein, 37° C., read-out: ClpP Activation EC50

SMILES | IC50 (Sa-ClpP [1]; [3]) [µM] | EC50 (Sa-ClpP [2]; [4]) [nM] | EC50 (S. aureus ClpP (Sa-ClpP); [5]) [µM] | MIC (S. pyogenes ATCC 700294) [µM] | IC50 (Sa-ClpP [1]) [µM] | EC50 (Sa-ClpP [2]) [nM] | EC50 (S. aureus ClpP (Sa-ClpP)) [µM]
C[C@@H]1C[C@H]2C(=O)OC[C@H](NC(=O)[C@H](Cc3ccccc3)NC(=O)Nc3cccc(Cl)c3)C(=O)N3CCC[C@H]3C(=O)N3CCCC[C@H]3C(=O)N[C@@H](C)C(=O)N2C1 [Compound 9, (S)-2-(3-(3-Chlorophenyl)Ureido)-N-((2R,6S,8aS,14aS,20S,23aS)-2,6-Dimethyl-5,8,14,19,23-Pentaoxooctadecahydro-1H,5H,14H,19H-Pyrido[2,1-I]Dipyrrolo[2,1-C:2′,1′-L][1]Oxa[4,7,10,13]Tetraazacyclohexadecin-20-Yl)-3-Phenylpropanamide] | 25.4 ± 2.2 | 1100 | 1 ± 0.1 | 1.56 (≈ 1.21 µg/mL) |  |  | 
Cc1ccc(NC(=O)N[C@@H](Cc2cc(F)cc(F)c2)C(=O)N[C@@H]2C(=O)N3CCC[C@H]3C(=O)N3CCCC[C@H]3C(=O)N[C@@H](C)C(=O)N3CCC[C@H]3C(=O)O[C@H]2C)cc1 [Compound 15, (S)-3-(3,5-Difluorophenyl)-N-((6S,8aS,14aS,20S,21 S,23aS)-6,21-Dimethyl-5,8,14,19,23-Pentaoxooctadecahydro-1H,5H,14H,19H-Pyrido[2,1-I]Dipyrrolo[2,1-C:2′,1′-L][1]Oxa[4,7,10,13]Tetraazacyclohexadecin-20-Yl)-2-(3-(P-Tolyl)Ureido)Propanamide] | 8.4 ± 0.2 | 700 | 4.6 ± 0.9 | 0.6 (≈ 0.476 µg/mL) |  |  | 
C[C@@H]1C[C@H]2C(=O)OC[C@H](NC(=O)[C@H](Cc3ccccc3)NC(=O)Nc3ccc(Cl)cc3)C(=O)N3CCC[C@H]3C(=O)N3CCCC[C@H]3C(=O)N[C@@H](C)C(=O)N2C1 [Compound 3, (S)-2-(3-(4-Chlorophenyl)Ureido)-N-((2R,6S,8aS,14aS,20S,23aS)-2,6-Dimethyl-5,8,14,19,23-Pentaoxooctadecahydro-1H,5H,14H,19H-Pyrido[2,1-I]Dipyrrolo[2,1-C:2′,1′-L][1]Oxa[4,7,10,13]Tetraazacyclohexadecin-20-Yl)-3-Phenylpropanamide] | 9.25 ± 0.5 | 1500 | 3.3 ± 0.2 | 0.39 (≈ 0.304 µg/mL) |  |  | 
C[C@@H]1C[C@H]2C(=O)OC[C@H](NC(=O)[C@H](Cc3ccccc3)NC(=O)Nc3ccc(N(C)C)cc3)C(=O)N3CCC[C@H]3C(=O)N3CCCC[C@H]3C(=O)N[C@@H](C)C(=O)N2C1 [Compound 5, (S)—N-((2R,6S,8aS,14aS,20S,23aS)-2,6-Dimethyl-5,8,14,19,23-Pentaoxooctadecahydro-1H,5H,14H,19H-Pyrido[2,1-1]Dipyrrolo[2,1-C:2′,1′-L][1]Oxa[4,7,10,13]Tetraazacyclohexadecin-20-Yl)-2-(3-(4-(Dimethylamino)Phenyl)Ureido)-3-Phenylpropanamide] | 28 ± 2.3 | 1500 | 1.3 ± 0.2 | 0.78 (≈ 0.614 µg/mL) |  |  | 
COc1ccc(NC(=O)N[C@@H](Cc2ccccc2)C(=O)N[C@H]2COC(=O)[C@@H]3C[C@@H](C)CN3C(=O)[C@H](C)NC(=O)[C@@H]3CCCCN3C(=O)[C@@H]3CCCN3C2=O)cc1 [Compound 6, (S)—N-((2R,6S,8aS,14aS,20S,23aS)-2,6-Dimethyl-5,8,14,19,23-Pentaoxooctadecahydro-1H,5H,14H,19H-Pyrido[2,1-1]Dipyrrolo[2,1-C:2′,1′-L][1]Oxa[4,7,10,13]Tetraazacyclohexadecin-20-Yl)-2-(3-(4-Methoxyphenyl)Ureido)-3-Phenylpropanamide] | 27.7 ± 1.5 | 800 | 2 ± 0.1 | 0.39 (≈ 0.302 µg/mL) |  |  | 
C[C@@H]1NC(=O)[C@@H]2CCCCN2C(=O)[C@@H]2CCCN2C(=O)[C@@H](NC(=O)[C@H](Cc2cc(F)cc(F)c2)NC(=O)Nc2ccc3c(c2)OCO3)[C@H](C)OC(=O)[C@@H]2CCCN2C1=O [Compound 17, (S)-2-(3-(Benzo[D][1,3]Dioxol-5-Yl)Ureido)-3-(3,5-Difluorophenyl)-N-((6S,8aS,14aS,20S,21 S,23aS)-6,21-Dimethyl-5,8,14,19,23-Pentaoxooctadecahydro-1H,5H,14H,19H-Pyrido[2,1-I]Dipyrrolo[2,1-C:2′,1′-L][1]Oxa[4,7,10,13]Tetraazacyclohexadecin-20-Yl)Propanamide] |  |  |  |  | 7.2 ± 0.4 | 720 | 3.6 ± 0.6
Cc1ccc(NC(=O)N[C@@H](Cc2cc(F)cc(F)c2)C(=O)N[C@@H]2C(=O)N3CCC[C@H]3C(=O)N3CCCC[C@H]3C(=O)N[C@@H](C)C(=O)N3C[C@@H](C)C[C@H]3C(=O)O[C@H]2C)cc1 [Compound 18, (S)-3-(3,5-Difluorophenyl)-2-(3-(P-Tolyl)Ureido)-N-((2R,6S,8aS,14aS,20S,21S,23aS)-2,6,21-Trimethyl-5,8,14,19,23-Pentaoxooctadecahydro-1H,5H,14H,19H-Pyrido[2,1-I]Dipyrrolo[2,1-C:2′,1′-L][1]Oxa[4,7,10,13]Tetraazacyclohexadecin-20-Yl)Propanamide] | 5.6 ± 0.3 | 320 | 7 ± 0.9 | < 0.1 |  |  | 
Cc1ccc(NC(=O)N[C@@H](Cc2cc(F)cc(F)c2)C(=O)N[C@H]2COC(=O)[C@@H]3C[C@@H](C)CN3C(=O)[C@H](C)NC(=O)[C@@H]3CCCCN3C(=O)[C@@H]3CCCN3C2=O)cc1 [Compound 24, (S)-3-(3,5-Difluorophenyl)-N-((2R,6S,8aS,14aS,20S,23aS)-2,6-Dimethyl-5,8,14,19,23-Pentaoxooctadecahydro-1H,5H,14H,19H-Pyrido[2,1-I]Dipyrrolo[2,1-C:2′,1′-L][1]Oxa[4,7,10,13]Tetraazacyclohexadecin-20-Yl)-2-(3-(P-Tolyl)Ureido)Propanamide] | 8.6 ± 0.5 | 400 | 3.3 ± 0.2 | 0.5 (≈ 0.397 µg/mL) |  |  | 
C[C@H]1C[C@H]2C(=O)O[C@@H](C)[C@H](NC(=O)[C@H](Cc3cc(F)cc(F)c3)NC(=O)Nc3ccc4c(c3)OCO4)C(=O)N3CCC[C@H]3C(=O)N3CCCC[C@H]3C(=O)N[C@@H](C)C(=O)N2C1 [Compound 20, (S)-2-(3-(Benzo[D][1,3]Dioxol-5-Yl)Ureido)-3-(3,5-Difluorophenyl)-N-((2R,6S,8aS,14aS,20S,21 S,23aS)-2,6,21-Trimethyl-5,8,14,19,23-Pentaoxooctadecahydro-1H,5H,14H,19H-Pyrido[2,1-I]Dipyrrolo[2,1-C:2′,1′-L][1]Oxa[4,7,10,13]Tetraazacyclohexadecin-20-Yl)Propanamide] |  |  |  |  | 6 ± 0.3 | 360 | 1.6 ± 0.3
C[C@@H]1NC(=O)[C@@H]2CCCCN2C(=O)[C@@H]2CCCN2C(=O)[C@@H](NC(=O)[C@H](Cc2cc(F)cc(F)c2)NC(=O)Nc2ccc(C(F)(F)F)cc2)[C@H](C)OC(=O)[C@@H]2CCCN2C1=O [Compound 16, (S)-3-(3,5-Difluorophenyl)-N-((6S,8aS,14aS,20S,21 S,23aS)-6,21-Dimethyl-5,8,14,19,23-Pentaoxooctadecahydro-1H,5H,14H,19H-Pyrido[2,1-I]Dipyrrolo[2,1-C:2′,1′-L][1]Oxa[4,7,10,13]Tetraazacyclohexadecin-20-Yl)-2-(3-(4-(Trifluoromethyl)Phenyl)Ureido)Propanamide] ({NHPh(4-CF3)-CO}-[Phe(3,5-F2)][aThr]P[Pip]AP; ester 2-C) | 8.3 ± 0.6 | 550 | 4.4 ± 0.7 | 1.5 (≈ 1.27 µg/mL) |  |  | 
Cc1ccc(NC(=O)N[C@@H](Cc2ccccc2)C(=O)N[C@H]2COC(=O)[C@@H]3C[C@@H](C)CN3C(=O)[C@H](C)NC(=O)[C@@H]3CCCCN3C(=O)[C@@H]3CCCN3C2=O)cc1 [Compound 23, (S)—N-((2R,6S,8aS,14aS,20S,23aS)-2,6-Dimethyl-5,8,14,19,23-Pentaoxooctadecahydro-1H,5H,14H,19H-Pyrido[2,1-I]Dipyrrolo[2,1-C:2′,1′-L][1]Oxa[4,7,10,13]Tetraazacyclohexadecin-20-Yl)-3-Phenyl-2-(3-(P-Tolyl)Ureido)Propanamide] | 7.1 ± 0.3 | 500 | 2.6 ± 0.4 | < 0.2 |  |  | 
CCCC/C=C/C(=O)N[C@@H](Cc1cc(F)cc(F)c1)C(=O)N[C@@H]1C(=O)N2CCC[C@H]2C(=O)N2CCCC[C@H]2C(=O)N[C@@H](C)C(=O)N2CCC[C@H]2C(=O)O[C@H]1C [ADEP 2719, reference compound] ({Heptenoyl(2E)}-[Phe(3,5-F2)][aThr]P[Pip]AP; ester 2-C) | 6.2 ± 0.3 | 380 ± 10 |  |  |  |  | 
